# Measured values from patent US9416125B2, “Substituted cycloalkenopyrazoles as BUB1 inhibitors for the treatment of cancer” (BAYER PHARMA AKTIENGESELLSCHAFT, priority 2012, dated 2016).
# Key:
# [1] = molecular target: T1, catalytic domain of human Bub1 (amino acids 704-1085) (Homo sapiens, UniProt O43683); test: Bub1 kinase assay (TR-FRET); type: biochemical; conditions: 10 μM ATP, 1 μM peptide substrate, median, read-out: Biological Assay 1: Bub1 kinase assay median IC50
# T1 construct: catalytic domain of human Bub1 (amino acids 704-1085); His6 (N); made in house; host or cells: Hi5 insect cells
# Description: Bub1-inhibitory activities of compounds described in the present invention were quantified using a time-resolved fluorescence energy transfer (TR-FRET) kinase assay which measures phosphorylation of the synthetic peptide Biotin-Ahx-VLLPKKSFAEPG (C-terminus in amide form), purchased from e.g. Biosyntan (Berlin, Germany) by the (recombinant) catalytic domain of human Bub1 (amino acids 704-1085), expressed in Hi5 insect cells with an N-terminal His6-tag and purified by affinity- (Ni-NTA) and size exclusion chromatography.
# In a typical assay 11 different concentrations of each compound (0.1 nM, 0.33 nM, 1.1 nM, 3.8 nM, 13 nM, 44 nM, 0.15 μM, 0.51 μM, 1.7 μM, 5.9 μM and 20 μM) were tested in duplicate within the same microtiter plate. To this end, 100-fold concentrated compound solutions (in DMSO) were previously prepared by serial dilution (1:3.4) of 2 mM stocks in a clear low volume 384-well source microtiter plate (Greiner Bio-One, Frickenhausen, Germany), from which 50 nL of compounds were transferred into a black low volume test microtiter plate from the same supplier. Subsequently, 2 μL of Bub1 (the final concentration of Bub1 was adjusted depending on the activity of the enzyme lot in order to be within the linear dynamic range of the assay: typically ˜200 ng/mL were used) in aqueous assay buffer [50 mM Tris/HCl pH 7.5, 10 mM magnesium chloride (MgCl2), 200 mM potassium chloride (KCl), 1.0 mM dithiothreitol (DTT), 0.1 mM sodium ortho-vanadate, 1% (v/v) glycerol, 0.01% (w/v) bovine serum albumine (BSA), 0.005% (v/v) Trition X-100 (Sigma), 1× Complete EDTA-free protease inhibitor mixture (Roche)] were added to the compounds in the test plate and the mixture was incubated for 15 min at 22° C. to allow pre-equilibration of the putative enzyme-inhibitor complexes before the start of the kinase reaction, which was initiated by the addition of 3 μL 1.67-fold concentrated solution (in assay buffer) of adenosine-tri-phosphate (ATP, 10 μM final concentration) and peptide substrate (1 μM final concentration). The resulting mixture (5 μL final volume) was incubated at 22° C. during 60 min, and the reaction was stopped by the addition of 5 μL of an aqueous EDTA-solution (50 mM EDTA, in 100 mM HEPES pH 7.5 and 0.2% (w/v) bovine serum albumin) which also contained the TR-FRET detection reagents (0.2 μM streptavidin-XL665 [Cisbio Bioassays, Codolet, France] and 1 nM anti-phosho-Serine antibody [Merck Millipore, cat. #35-001] and 0.4 nM LANCE EU-W1024 labeled anti-mouse IgG antibody [Perkin-Elmer, product no. AD0077, alternatively a Terbium-cryptate-labeled anti-mouse IgG antibody from Cisbio Bioassays can be used]). The stopped reaction mixture was further incubated 1 h at 22° C. in order to allow the formation of complexes between peptides and detection reagents. Subsequently, the amount of product was evaluated by measurement of the resonance energy transfer from the Eu-chelate-antibody complex recognizing the Phosphoserine residue to the streptavidin-XL665 bound to the biotin moiety of the peptide. To this end, the fluorescence emissions at 620 nm and 665 nm after excitation at 330-350 nm were measured in GTR-FRET plate reader, e.g. a Rubystar or Pherastar (both from BMG Labtechnologies, Offenburg, Germany) or a Viewlux (Perkin-Elmer) and the ratio of the emissions (665 nm/622 nm) was taken as indicator for the amount of phosphorylated substrate. The data were normalised using two sets of (typically 32-) control wells for high- (=enzyme reaction without inhibitor=0%=Minimum inhibition) and low- (=all assay components without enzyme=100%=Maximum inhibition) Bub1 activity. IC50 values were calculated by fitting the normalized inhibition data to a 4-parameter logistic equation (Minimum, Maximum, IC50, Hill; Y=Max+(Min−Max)/(1+(X/IC50)Hill)).
# HeLa cell line = test: Proliferation assay (crystal violet staining); type: cell-based; conditions: Homo sapiens, 96 h, 4 days incubation, range 0.001-10 μM, median, read-out: Biological Assay 2: Proliferation assay (HeLa cell line) median IC50
# Procedure: Cultivated tumor cells (cells were ordered from ATCC, except HeLa-MaTu and HeLa-MaTu-ADR, which were ordered from EPO-GmbH, Berlin) were plated at a density of 1000 to 5000 cells/well, depending on the growth rate of the respective cell line, in a 96-well multititer plate in 200 μL of their respective growth medium supplemented 10% fetal calf serum. After 24 h, the cells of one plate (zero-point plate) were stained with crystal violet (see below), while the medium of the other plates was replaced by fresh culture medium (200 μL), to which the test substances were added in various concentrations (0 μM, as well as in the range of 0.001-10 μM; the final concentration of the solvent DMSO was 0.5%). The cells were incubated for 4 days in the presence of test substances. Cell proliferation was determined by staining the cells with crystal violet: the cells were fixed by adding 20 μL/measuring point of an 11% glutaric aldehyde solution for 15 min at rt. After three washing cycles of the fixed cells with water, the plates were dried at rt. The cells were stained by adding 100 μL/measuring point of a 0.1% crystal violet solution (pH 3.0). After three washing cycles of the stained cells with water, the plates were dried at rt. The dye was dissolved by adding 100 μL/measuring point of a 10% acetic acid solution. Absorbtion was determined by photometry at a wavelength of 595 nm. The change of cell number, in percent, was calculated by normalization of the measured values to the aborbtion values of the zero-point plate (=0%) and the absorbtion of the untreated (0 μm) cells (=100%). The IC50 values were determined by means of a 4 parameter fit.
# T1 sequence (O43683 704-1085): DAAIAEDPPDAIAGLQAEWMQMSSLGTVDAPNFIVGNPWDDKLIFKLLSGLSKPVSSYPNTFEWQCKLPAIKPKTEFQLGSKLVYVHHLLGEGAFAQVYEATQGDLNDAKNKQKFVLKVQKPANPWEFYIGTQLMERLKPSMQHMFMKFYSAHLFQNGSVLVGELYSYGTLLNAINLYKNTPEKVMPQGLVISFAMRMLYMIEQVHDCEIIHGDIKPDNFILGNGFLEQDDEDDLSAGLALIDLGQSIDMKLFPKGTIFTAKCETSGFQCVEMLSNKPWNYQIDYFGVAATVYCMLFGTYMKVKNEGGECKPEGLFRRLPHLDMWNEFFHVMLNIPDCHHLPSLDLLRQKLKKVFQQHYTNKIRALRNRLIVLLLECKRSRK
SMILES,IC50 [1] [nM],IC50 (HeLa cell line) [µM]
"Nc1nc(-c2nn(Cc3ccccc3F)c3c2CCC3)nc(Nc2ccncc2)c1N1CCOCC1 [Example 2-1-5, 2-[1-(2-fluoro-benzyl)-1,4,5,6-tetrahydrocyclopenta [c]pyrazol-3-yl]-5-(morpholin-4-yl)-N-(pyridin-4-yl)pyrimidin-4,6-diamine]",100,–
"COc1cnc(-c2nn(Cc3ccccc3F)c3c2CCC3)nc1Nc1ccncc1 [Example 2-1-6, 2-[1-(2-fluoro-benzyl)-1,4,5,6-tetrahydrocyclopenta [c]pyrazol-3-yl]-5-methoxy-N-(pyridin-4-yl)pyrimidin-4-amine]",100,≥ 10
"COc1cnc(-c2nn(Cc3ccccc3F)c3c2CCC3)nc1Nc1ccncc1C#N [Example 2-1-7, 4-({2-[1-(2-fluoro-benzyl)-1,4,5,6-tetrahydrocyclopenta [c]pyrazol-3-yl]-5-methoxy-pyrimidin-4-yl}amino) nicotinonitrile]",200,≥ 10
"Fc1ccccc1Cn1nc(-c2nc(Nc3ccncc3)c(N3CCOCC3)c(Nc3ccncc3)n2)c2c1CCC2 [Example 2-1-8, 2-[1-(2-fluoro-benzyl)-1,4,5,6-tetrahydrocyclopenta[c]pyrazol-3-yl]-5-(morpholin-4-yl)-N,N′-di(pyridin-4-yl)pyrimidin-4,6-diamine]",3000,–
"COCC(=O)Nc1nc(-c2nn(Cc3ccccc3F)c3c2CCC3)nc(Nc2ccncc2)c1OC [Example 2-1-10, N-{2-[1-(2-fluorobenzyl)-1,4,5,6-tetrahydrocyclopenta[c]pyrazol-3-yl]-5-methoxy-6-(pyridin-4-ylamino)pyrimidin-4-yl}-2-methoxyacetamide]",300,≥ 10
"COc1c(NC(C)=O)nc(-c2nn(Cc3ccccc3F)c3c2CCC3)nc1Nc1ccncc1 [Example 2-1-11, N-{2-[1-(2-fluoro-benzyl)-1,4,5,6-tetrahydrocyclopenta [c]pyrazol-3-yl]-5-methoxy-6-(pyridin-4-ylamino)pyrimidin-4-yl}acetamide]",120,–
"NC(=O)c1cnccc1Nc1nc(-c2nn(Cc3ccccc3F)c3c2CCC3)ncc1O [Example 2-1-12, 4-({2-[1-(2-fluoro-benzyl)-1,4,5,6-tetrahydrocyclopenta [c]pyrazol-3-yl]-5-hydroxy-pyrimidin-4-yl}amino) nicotinamide]",200,≥ 10
"Oc1cnc(-c2nn(Cc3ccccc3F)c3c2CCC3)nc1Nc1ccncc1 [Example 2-1-13, 2-[1-(2-fluoro-benzyl)-1,4,5,6-tetrahydrocyclopenta [c]pyrazol-3-yl]-4-(pyridin-4-ylamino) pyrimidin-5-ol]",300,≥ 10
"CCOc1cc(F)c(Cn2nc(-c3ncc(OCCO[Si](C)(C)C(C)(C)C)c(Nc4ccncc4)n3)c3c2CCC3)c(F)c1 [Example 2-3-6, 5-(2-{[tert-butyl (dimethyl)silyl]oxy}ethoxy)-2-[1-(4-ethoxy-2,6-difluoro-benzyl)-1,4,5,6-tetrahydrocyclopenta [c]pyrazol-3-yl]-N-(pyridin-4-yl)pyrimidin-4-amine]",100,–
"CCOC(=O)c1cnccc1Nc1nc(-c2nn(Cc3ccccc3F)c3c2CCC3)ncc1Oc1ccncc1C(=O)OCC [Example 2-9-1, ethyl 4-[(4-{[3-(ethoxycarbonyl)pyridin-4-yl]amino}-2-[1-(2-fluorobenzyl)-1,4,5,6-tetrahydrocyclopenta[c]pyrazol-3-yl]pyrimidin-5-yl)oxy]nicotinate]",500,–
"COCC(=O)N(c1ccncc1)c1nc(-c2nn(Cc3ccccc3F)c3c2CCC3)nc(N)c1OC [Example 2-12-1, N-{6-amino-2-[1-(2-fluorobenzyl)-1,4,5,6-tetrahydrocyclopenta[c]-pyrazol-3-yl]-5-methoxypyrimidin-4-yl}-2-methoxy-N-(pyridin-4-yl)acetamide]",6000,–

# Stronger by IC50 [1], values ahead:
IC50 [1] [nM],IC50 (HeLa cell line) [µM],SMILES
5,6,"CCOc1cc(F)c(Cn2nc(-c3ncc(OC)c(Nc4ccncc4)n3)c3c2CCC3)c(F)c1 [Example 2-1-1, 2-[1-(4-ethoxy-2,6-difluorobenzyl)-1,4,5,6-tetrahydrocyclopenta-[c]pyrazol-3-yl]-5-methoxy-N-(pyridin-4-yl)pyrimidin-4-amine]"
10,≥ 10,"COc1cnc(-c2nn(Cc3ccccc3F)c3c2CCCC3)nc1Nc1ccncc1 [Example 2-1-2, 2-[1-(2-fluoro-benzyl)-4,5,6,7-tetrahydro-1H-indazol-3-yl]-5-methoxy-N-(pyridin-4-yl)pyrimidin-4-amine]"
50,≥ 10,"COc1ccc(Cn2nc(-c3ncc(OC)c(Nc4ccncc4)n3)c3c2CCC3)cc1 [Example 2-1-3, 5-methoxy-2-[1-(4-methoxy-benzyl)-1,4,5,6-tetrahydrocyclopenta [c]pyrazol-3-yl]-N-(pyridin-4-yl)pyrimidin-4-amine]"
90,≥ 10,"COc1c(N)nc(-c2nn(Cc3ccccc3F)c3c2CCC3)nc1Nc1ccncc1 [Example 2-1-4, 2-[1-(2-fluoro-benzyl)-1,4,5,6-tetrahydrocyclopenta [c]pyrazol-3-yl]-5-methoxy-N-(pyridin-4-yl)pyrimidin-4,6-diamine]"
20,≥ 10,"CCOc1cc(F)c(Cn2nc(-c3ncc(O)c(Nc4ccncc4)n3)c3c2CCC3)c(F)c1 [Example 2-2-1, 2-[1-(4-ethoxy-2,6-difluorobenzyl)-1,4,5,6-tetrahydrocyclopenta-[c]pyrazol-3-yl]-4-(pyridin-4-ylamino)pyrimidin-5-ol]"
70,6,"N#Cc1cnccc1Nc1nc(-c2nn(Cc3ccccc3F)c3c2CCC3)ncc1O [Example 2-2-2, 4-({2-[1-(2-fluoro-benzyl)-1,4,5,6-tetrahydrocyclopenta [c]pyrazol-3-yl]-5-hydroxy-pyrimidin-4-yl}amino) nicotinonitrile]"
20,–,"CSCCOc1cnc(-c2nn(Cc3ccccc3F)c3c2CCC3)nc1Nc1ccncc1C(N)=O [Example 2-3-8, 4-({2-[1-(2-fluoro-benzyl)-1,4,5,6-tetrahydrocyclopenta [c]pyrazol-3-yl]-5-[2-(methyl-sulfanyl)ethoxy]pyrimidin-4-yl}amino) nicotinamide]"
